Measured values reported in patent US20240197712A1, “TGF-BETA INHIBITION FOR IMMUNODEFICIENCY VIRUS REACTIVATION FROM LATENCY, ENHANCEMENT OF IMMUNODEFICIENCY VIRUS-SPECIFIC RESPONSES AND IMMUNODEFICIENCY VIRUS CURE” (Northwestern University, priority 2022, published 2024).

Tests used:
ACH-2 cells = assay: PMA-induced HIV reactivation in ACH-2 cells, intracellular p24 staining; type: cell-based
Procedure: ACH2 cells and U1 cells were obtained through the NIH HIV Reagent Program, Division of AIDS, NIAID, NIH (contributed by Dr. Thomas Folks). […] In the HIV latency reactivation conditions, PMA (Phorbol 12-myristate 13-acetate, SigmaAldrich) was added at 100 ng/ml together with galunisertib or TGF-β1. After 18 hrs, cells were stained intracellularly for p24 using the KC57 antibody (NIH HIV Reagent Program) as previously described (74).

U1 cells [1] = assay: PMA-induced HIV reactivation in U1 cells, intracellular p24 staining; type: cell-based; conditions: U1 cells
Procedure: ACH2 cells and U1 cells were obtained through the NIH HIV Reagent Program, Division of AIDS, NIAID, NIH (contributed by Dr. Thomas Folks). Cells ([…]) were cultured in triplicates in RPMI with 10% FBS and Pen/Strep in presence of TGF-β1 (10 ng/ml R&D systems), TGF-β1 and galunisertib (1 μM MedChemExpress), galunisertib alone or mock treated. In the HIV latency reactivation conditions, PMA (Phorbol 12-myristate 13-acetate, SigmaAldrich) was added at 100 ng/ml together with galunisertib or TGF-β1. After 18 hrs, cells were stained intracellularly for p24 using the KC57 antibody (NIH HIV Reagent Program) as previously described (74).

U1 cells [2] = assay: DC-driven HIV reactivation from U1 cells (moDC co-culture); type: cell-based; conditions: moDCs treated with TGF-β1 10 ng/ml for last 2 days, with or without galunisertib; 18 hrs co-culture
Procedure: (§1) CD14^+ cells were isolated from PBMC using the Miltenyi CD14^+ beads. Monocyte-derived DCs (moDCs) were obtained from CD14+ cells cultured in GM-CSF and IL-4 as previously described (55). At day 4 of moDCs differentiation, TGF-β1 (10 ng/ml R&D systems) was added to the moDCs to generate the TGF-β-DCs (or both TGF-β1 and galunisertib). At day 6, 2 days after TGF-1 addition, moDCs were phenotyped (in 3 donors; See Table 2 for antibodies list) and co-cultured with eFluor670 (eBioscience)-labelled U1 at 3:1 U1:DC ratio (5 donors). After 18 hrs of co-culture, cells were stained for p24 intracellularly as described above.

moDCs = assay: moDC phenotyping by flow cytometry; type: cell-based, human; conditions: moDCs generated in the presence of TGF-β1
Procedure: as §1

primary CD4+ T cells = assay: Primary CD4+ T cell model of HIV-1 latency, p24 ICS; type: cell-based, human; conditions: primary CD4+ T cells infected with HIV ADA; PMA 100 ng/ml; TGF-β1 10 ng/ml or galunisertib 1 μM
Procedure: Next, the impact of TGF-β1 on a primary model of HIV-1 latency was tested using freshly isolated CD4+ T cells. The experiment was based on the model by Berkhout and colleagues (50) with some modifications (FIG. 1F). Specifically, CD4+ T cells were isolated from HIV-1 uninfected, de-identified donor PBMC and activated them with PHA and IL-2 for 3 days before infection via spinoculation with HIV ADA. After extensive wash of the viral inoculum, cells were cultured 48 hrs in presence of T20 (enfuvirtide) to avoid viral spread beyond the cells with initial integrations. The overall initial infection achieved was very low despite the spinoculation step (˜0.1% of p24-gag+ cells, FIGS. 3A-3B).
Blood from de-identified donors was obtained from the New York Blood Bank and used as source of CD4 T cells for the primary model of HIV latency in vitro. Total CD4+ T cells were isolated with the CD4 T cells isolation kit (Miltenyi) and activated with 5 μg/ml of PHA and 50 U/ml of IL-2 for 3 days. After washing out the PHA, cells were infected with 200TCID50 of HIV-ADA (NIH HIV Reagent Program) in 12 or 24 wells/plates and spinoculated at 1200 g for 2 hrs at 25° C. After additional 3 hrs of incubation at 37° C., viral inoculum was washed and cells plated in presence of T20 (Enfurtivide acetate salt, 1 μM NIH AIDS reagent program). […]

TGF-β1: exogenous TGF-β1 cytokine (R&D systems) added to cultures at 10 ng/ml
decrease of the frequency of p24-gag+ cells in PMA-stimulated cultures (ACH-2 cells; ACH-2 cells, PMA 100 ng/ml, TGF-β1 10 ng/ml): ~20%
baseline p24-gag levels in absence of PMA (ACH-2 cells; ACH-2 cells, TGF-β1 10 ng/ml): smaller but consistent decrease
effect on p24+ cells in X-Vivo 15 medium without FBS (ACH-2 cells; control experiments, U1 and ACH-2, no FBS): more pronounced
frequency of p24-gag+ cells in unstimulated cultures (U1 cells [1]; no PMA, TGF-β1 10 ng/ml or galunisertib 1 μM alone): below the baseline level
reduction of the PMA driven increase in the frequency of p24-gag+ cells (U1 cells [1]; PMA 100 ng/ml, TGF-β1 10 ng/ml, 18 hrs): ~20%
frequency of p24-gag+ U1 cells in cocultures with TGF-β1-treated DCs versus untreated DCs (U1 cells [2]): significantly less
DEC-205 expression on moDCs (moDCs): significantly lower
PMA-induced frequency of p24-gag+ cells (primary CD4+ T cells): significantly inhibited
